Data: PMC5839231, “Isolation and Characterization of Protein Tyrosine Phosphatase 1B (PTP1B) Inhibitory Polyphenolic Compounds From Dodonaea viscosa and Their Kinetic Analysis” (Frontiers in Chemistry, 2018)
Where two headings read alike, the source gives them in different places.

Tests used:
[1] = molecular target: T1, Protein tyrosine phosphatase 1B (PTP1B) (Homo sapiens, UniProt P18031); test: PTP1B inhibitory kinetics (Lineweaver-Burk, Dixon and secondary plots); assay type: biochemical; details: for Type of inhibition: Lineweaver-Burk plots, substrate 0.437-1.75 mM pNPP
T1 sequence (P18031 1-435): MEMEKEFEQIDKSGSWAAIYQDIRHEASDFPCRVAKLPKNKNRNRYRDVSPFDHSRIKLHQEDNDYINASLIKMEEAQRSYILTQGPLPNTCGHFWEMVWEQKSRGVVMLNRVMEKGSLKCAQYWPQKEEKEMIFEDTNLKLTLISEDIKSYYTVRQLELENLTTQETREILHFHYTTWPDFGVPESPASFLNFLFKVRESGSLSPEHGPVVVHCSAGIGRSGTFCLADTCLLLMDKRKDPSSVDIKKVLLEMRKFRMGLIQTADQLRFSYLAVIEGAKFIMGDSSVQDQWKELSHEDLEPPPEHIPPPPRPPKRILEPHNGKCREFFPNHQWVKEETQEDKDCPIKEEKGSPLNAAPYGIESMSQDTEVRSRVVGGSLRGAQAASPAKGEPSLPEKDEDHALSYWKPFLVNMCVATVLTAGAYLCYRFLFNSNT
Protocol: (§1) Protein tyrosine phosphatase 1B inhibitory assay was performed with slight modification to the previously reported method (Song et al., [2017]). Tris–HCl buffer (25 mM, pH 7.5) which contained 1 mM (ethylenediaminetetraacetic acid) EDTA, 1 mM dithiothreitol (DTT), and 2 mM β-mercaptoethanol was used as buffer solution, whereas p-nitrophenyl phosphate (pNPP), a substrate of PTP1B was utilized for enzyme activity measurement. Enzyme assay was started by mixing 10 μL of test compounds with 130 μL of Tris-HCl buffer solution in 96-well plate, then 20 μL of enzyme (EC 3.1.3.48, 1μg/mL), and finally 40 μL of substrate (4 mM pNPP) was added at 37°C for 10 min. During the substrate hydrolysis, pNPP was de-phosphorylated, giving product pNP, which was detected by Spectra Max M3 Multi-Mode Microplate reader (Molecular devices, USA) at a wavelength of 405 nm for 30 min. […] Kinetic parameters were determined by Line weaver-Burk and Dixon plots. Sigma Plot (SPCC Inc., Chicago, IL, USA) was utilized for data setting and calculation.
In order to study detailed kinetics of PTP1B, Michaelis-Menten equation (4) is applied, who's reciprocal is taken which transform to a new equation, Line weaver-Burk equation (5). Using this equation Line weaver-Burk plots were constructed, which were applied for the analysis of inhibitory kinetics of test compounds. Different inhibitor concentrations accompanied with varying substrate concentrations were used for determination of enzymes steady-state rates, subsequently kinetic parameters related to PTP1B inhibition were also determined. The values of inhibitory constants KI and KIS, when free enzyme binds with inhibitor (KI) or enzyme-substrate-complex interact with inhibitor (KIS) were obtained from secondary plots of the slopes and vertical intercept (1/V^appmax) vs. inhibitors concentration. The representative Equations (1–3) were used to acquire KI and KIS values (Chiari et al., [2011]).
For inhibition parameters, an assay was performed having different substrate concentrations (0.437–1.75 mM), and several dilutions of tested compounds.
The effects of different concentrations of the bioactive active compounds on the hydrolysis of p-nitrophenyl phosphate by PTP1B were studied. We assayed different concentrations (3.75, 7.5, 15, 30, 60, and 120 μM) of inhibitors (1-9) with the given enzyme and substrate. As a result, we observed a gradual decrease in enzyme activity (% activity) with increasing inhibitors concentrations as shown in Figure 2A. […] Plots of residual enzyme activity vs. enzyme concentration at different concentrations (0, 6.7, 13.5, and 27 μM) of compound 4 gave a family of lines which intersected on x-axis at 0 intercept. […] In order to explore the mechanistic behavior and kinetic features of the tested compounds, detailed kinetic study was performed. For this purpose the target enzyme was assayed in different concentrations of substrate (0.437, 0.875, 1.75 mM), in the presence of several dilutions of the respective compound, been graphically presented in double reciprocal plots (Linweaver-Burk and Dixon plots). Representatively, here we have explained compound 4 in detail, the Lineweaver-Burk plots of (4) produced a family of straight lines which intersected on the left side of y-axis and above the x-axis as shown in Figure 3A. The inhibitory constants (KI and KIS) were obtained by plotting the slopes and intercepts vs. different concentrations of compound 4 (Figure 3A, insets). […] In kinetic plots the abscissa [I] is the concentration of compound, where the coordinate1/V represents reciprocal of enzyme activity.

[2] = molecular target: T1, Protein tyrosine phosphatase 1B (PTP1B); test: PTP1B inhibitory assay (hydrolysis of p-nitrophenyl phosphate, 405 nm); assay type: biochemical; details: for IC50: pNPP substrate, 37°C, experiments repeated three times
Protocol: as §1

[3] = from Dixon plots, read-out: Ki (inhibition constant)

Row | Type of inhibition [1] | Ki [1, 3] [µM] | IC50 [2] [µM] | Reversibility of inhibition ([1]; residual enzyme activity vs. enzyme concentration at 0, 6.7, 13.5, 27 μM inhibitor) | KIS (inhibitor binding to enzyme-substrate complex) ([1]; secondary plot of intercepts vs. inhibitor concentration, Equation 3) [µM] | Ki ([1]; secondary plot of slopes vs. inhibitor concentration, Equation 2, read-out: KI (inhibitor binding to free enzyme)) [µM] | fold more potency than mother skeleton 1 ([2]; IC50 comparison with compound 1) [fold] | fold more potency than mother skeleton 2 ([2]; IC50 comparison with compound 2) [fold] | Structure (SMILES)
1 | Mixed | 27.3 | 57.9 ± 0.6 |  |  |  |  |  | COc1cc2oc(-c3ccc(O)cc3)c(OC)c(=O)c2c(O)c1OC [Compound 1, penduletin]
2 | Mixed | 6.9 | 18.7 ± 0.6 |  |  |  |  |  | COc1c(O)cc2oc(-c3ccc(O)cc3)c(OC)c(=O)c2c1O [Compound 3, viscosine]
3 | mixed type I | 4.6 | 13.5 ± 0.3 | reversible | 26.4 ± 0.4 | 4.1 ± 0.2 | 6 | 2.5 | COc1ccc(-c2oc3cc(O)c(OC)c(O)c3c(=O)c2OC)cc1CC=C(C)C [Compound 4, 5,7-dihydroxy-3,6-dimethoxy-2-(4-methoxy-3-(3-methylbut-2-enyl)phenyl)-4H-chromen-4-one]
4 | Mixed | 10.1 | 28.4 ± 0.9 |  |  |  |  |  | C=C(C)C(O)Cc1cc(-c2oc3cc(O)c(OC)c(O)c3c(=O)c2OC)ccc1OC (centres unmarked) [Compound 5, 5,7-dihydroxy-3′-(2-hydroxy-3-methylbutenyl)-3,6,4′-trimethoxy-flavone]
5 | Mixed | 22.8 | 56 ± 0.3 |  |  |  |  |  | COc1ccc(-c2oc3cc(O)c(OC)c(O)c3c(=O)c2OC)cc1CCC(C)CO (centres unmarked) [Compound 6]
6 | Mixed | 14.3 | 41.8 ± 0.5 |  |  |  |  |  | COc1c(O)cc2oc(-c3ccc(O)c(CCC(C)CO)c3)c(OC)c(=O)c2c1O (centres unmarked) [Compound 7, 5,7,4′-trihydroxy-3′-(3-hydroxymethylbutyl)-3,6-dimethoxyflavone]
7 | Non-competitive | 13 | 20.5 ± 0.8 |  |  |  |  |  | CC1OC(OCC2OC(Oc3c(-c4ccc(O)cc4)oc4cc(O)cc(O)c4c3=O)C(O)C(O)C2O)C(O)C(O)C1O (centres unmarked) [Compound 8, Kaempferol 3-O-rutinoside]
8 | Non-competitive | 26.4 | 42.9 ± 0.4 |  |  |  |  |  | COc1cc(-c2oc3cc(O)cc(O)c3c(=O)c2OC2OC(COC3OC(C)C(O)C(O)C3O)C(O)C(O)C2O)ccc1O (centres unmarked) [Compound 9, Isorhamnetin3-O-robinobioside]
